{
  "source": "patent US20250127778A1",
  "about": "“CANCER IMMUNOTHERAPY COMPOSITION CONTAINING INTERACTION INHIBITOR OF STING AND TRIM29 AS ACTIVE INGREDIENT” (SPARK BIOPHARMA, INC, priority 2021, published 2025)",
  "key": {"[1]": {"target": "T1, STING (Mus musculus, UniProt Q3TBT3)", "T1 sequence (Q3TBT3 1-378)": "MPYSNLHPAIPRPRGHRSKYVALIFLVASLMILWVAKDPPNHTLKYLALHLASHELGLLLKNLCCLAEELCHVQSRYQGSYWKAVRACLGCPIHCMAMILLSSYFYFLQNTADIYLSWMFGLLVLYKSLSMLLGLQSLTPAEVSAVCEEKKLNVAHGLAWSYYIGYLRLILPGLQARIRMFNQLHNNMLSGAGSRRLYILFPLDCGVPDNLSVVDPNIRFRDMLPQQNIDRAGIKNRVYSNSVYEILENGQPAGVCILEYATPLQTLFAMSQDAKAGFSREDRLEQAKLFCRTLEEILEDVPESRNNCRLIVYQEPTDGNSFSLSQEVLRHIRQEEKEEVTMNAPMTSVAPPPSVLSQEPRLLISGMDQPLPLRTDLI", "assay": "STING expression level in immune cells inside tumor by flow cytometry", "assay_type": "in vivo", "conditions": "compound alone, FIG. 28", "description": "As described above, after euthanasia with carbon dioxide, the tumor was extracted, TIL was separated, and intracellular STING staining was performed in the same manner as in <Example 6>."}, "[2]": {"system": "STING mRNA", "assay": "qRT-PCR of STING mRNA in Raw264.7 cells", "assay_type": "cell-based, mouse", "conditions": "FIG. 17"}, "[3]": {"system": "tumor", "assay": "Combination with PD-1 antibody immune checkpoint therapeutic agent in tumor model", "assay_type": "in vivo, mouse", "conditions": "intratumoral, combination with intravenous PD-1 antibody compared to PD-1 antibody alone; FIG. 32", "text": "It was confirmed whether the efficacy can be increased in case of treating in combination with existing immune checkpoint therapeutic agents from the efficacy of constructing the systemic anticancer immune system of the compound of Formula 1."}, "[4]": {"target": "T2, TRIM29 (Mus musculus, UniProt Q8R2Q0)", "T2 construct": "endogenous in cells; host or cells: Raw264.7", "T2 sequence (Q8R2Q0 1-587)": "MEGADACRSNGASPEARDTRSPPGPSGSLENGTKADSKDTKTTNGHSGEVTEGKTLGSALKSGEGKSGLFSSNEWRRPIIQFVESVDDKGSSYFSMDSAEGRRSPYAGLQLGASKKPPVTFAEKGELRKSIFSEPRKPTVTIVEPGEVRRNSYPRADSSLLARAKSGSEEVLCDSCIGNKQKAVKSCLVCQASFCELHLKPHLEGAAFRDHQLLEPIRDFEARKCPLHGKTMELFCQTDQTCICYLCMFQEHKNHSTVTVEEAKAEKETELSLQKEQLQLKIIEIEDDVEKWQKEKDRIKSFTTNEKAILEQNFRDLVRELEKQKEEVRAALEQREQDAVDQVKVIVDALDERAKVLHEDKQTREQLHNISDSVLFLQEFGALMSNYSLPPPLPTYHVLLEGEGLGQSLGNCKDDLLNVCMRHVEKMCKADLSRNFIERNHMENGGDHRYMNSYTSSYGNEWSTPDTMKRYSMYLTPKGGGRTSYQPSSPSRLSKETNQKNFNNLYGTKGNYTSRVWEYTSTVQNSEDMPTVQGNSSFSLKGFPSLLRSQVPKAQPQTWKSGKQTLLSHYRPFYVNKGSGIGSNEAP", "assay": "ITDRF in Raw264.7 cells, TRIM29", "assay_type": "binding", "conditions": "FIG. 14", "text": "It was verified whether the oxopiperazine derivative of the present invention was bound to STING among STING and TRIM29 to inhibit interaction thereof, based on the compound of Formula 1, by the cellular thermal shift assay (CETSA) and the isothermal dose response fingerprint (ITDRF) which were major technologies for verifying the interaction between small molecule compounds and target proteins. (D. M. Molinaetal., Science 2013, 341, 84-87.)\nTo verify the target of the compound of Formula 1 using the CETSA technique, the human A431 cell lines and mouse Raw264.7 cell lines were seeded on a 100-mm or 150-mm culture dish and cultured for one day. […] Afterwards, centrifugation was performed at 20000 g for 20 minutes at 4° C., the supernatant was transferred to a new container, and each concentration was measured by using the Micro BCA™ protein assay kit (ThermoFisher) according to the protocol of the manufacturer. The concentration of each sample was equally adjusted by using the RIPA lysis buffer, the 5× SDS-PAGE loading buffer (Biosesang) was added according to the ratio of the manufacturer, and the resultant was treated at 95° C. for 5 minutes and analyzed by using the Western blotting method described above."}},
  "data": [
    {"compound": "COc1ccc(CC2=CN(c3ccc(C(=O)NC[C@H]4CCCO4)cc3[N+](=O)[O-])[C@H](C(C)C)C(=O)N2Cc2ccc(O)cc2)cc1", "note": "[Formula 1, 4-((R)-4-(4-hydroxybenzyl)-2-isopropyl-5-(4-methoxybenzyl)-3-oxo-3,4-dihydropyrazin-1 (2H)-yl)-3-nitro-N-(((R)-tetrahydrofuran-2-yl)methyl)benzamide]", "values": [
      {"measurement": "amount of STING in tumor-associated macrophages (TAM) and dendritic cells (DC)", "setting": "[1]; tumor extracted one day after final treatment", "value": "increased"},
      {"measurement": "effect of increasing STING in M1 compared to M2 macrophages", "setting": "[1]", "value": "more noticeably exhibited in M1 macrophages"},
      {"measurement": "relation of STING increase to RNA transcription (STING mRNA)", "setting": "[2]", "value": "not related to RNA transcription"},
      {"measurement": "final tumor weight", "setting": "[3]", "value": "decreased in a concentration-dependent manner"},
      {"measurement": "tumor growth", "setting": "[3]", "value": "decreased in a concentration-dependent manner"},
      {"measurement": "ITDRF effect on TRIM29", "setting": "[4]", "value": "without affecting TRIM29"}
    ]}
  ]
}
